Test results as given in US6369101B1, “Therapeutic method to treat herpes virus infection” (Regents of the University of Minnesota, priority 1999, dated 2002).
Values after ≈ are worked out from the molar mass of the structure shown. Where a name gives a salt, the structure may show the parent alone. Read-outs that look alike come from different tables or passages of the source.

Experiments:
[1] = system: Human laryngeal epithelial carcinoma cells (HEp-2); assay: Cytotoxicity in HEp-2 cells; type: cell-based; conditions: HEp-2 cells; conc. per compound (ng/ml)
Experimental: (§1) Human laryngeal epithelial carcinoma cells (HEp-2, ATCC, Rockville, Md.) were used for testing of antiviral compounds by cytopathic effect (CPE) inhibition and plaque reduction assay. […] HEp-2, African green monkey kidney cells (Vero, ATCC), HFF and primary rabbit kidney cells were used to determine the cytotoxic effect of compounds of formula I. These cells were propagated in Dulbeco's modified Eagle's medium (DMEM) (Sigma, USA) supplemented with 10% inactivated fetal calf serum (FCS), 25 mM HEPES, 0.2% sodium bicarbonate and 1% penicillin/-streptomycin at 37° C. in the presence of 5% CO2.
(§2) HFF, Vero and HEp-2 cells were seeded in 24-well tissue culture plates at a concentration of […] in DMEM containing 10% FCS and incubated for 24 hours at 37° C. in the presence of 5% CO2. To the monolayer of these cells 0.5, 1.0, 1.5 and 2.0 ml of solution of antiviral compounds were added in the respective wells in duplicate and the cells were then incubated in a 5% CO2 incubator at 37° C. for 72 hours. The cells were observed daily for any change in morphology. […] At the end of this time, the media-drug solution was removed and the cells washed. One ml of 0.25% trypsin was added to each well and incubated until the cells start to come off of the plate. The cells-media mixture was then pipetted up and down several times to resuspend the cells and 0.2 ml of the cell suspension was added to 9.8 ml of trypan blue and cells were counted using hemocytometer. Each sample was counted three times with three replicate wells per sample.

[2] = Cell proliferation assay (cytotoxicity) in HFF cells; type: cell-based, human; conditions: Human foreskin fibroblast cells, reduces growth of uninfected cells by 50%
Experimental: as §1, §2

HSV-2 strain MS = assay: CPE inhibition assay, HSV-2 MS in human foreskin fibroblast cells; as to Qualitative CPE at 2.0 ml dose HSV-2 MS: key: +++ = Complete cytopathic effect; ++ = Moderate cytopathic effect; + = Minimum cytopathic effect; − = No cytopathic effect; type: cell-based, herpes simplex virus type 2; conditions: for EC50: Human alphaherpesvirus 2, HFF, read-out: EC50 HSV-2 MS; for Qualitative CPE at 2.0 ml dose HSV-2 MS: HFF cells, solution conc. per compound (ng/ml) (Acyclovir 250)
Experimental: (§3) Stock solutions of the compounds used for the testing of antiviral activity against HSV-1 and HSV-2 were prepared in distilled water, filtered through 0.2 μm filter (Acrodisco®, Gelman Sciences, USA) and stored at room temperature until used.
(§4) Human laryngeal epithelial carcinoma cells (HEp-2, ATCC, Rockville, Md.) were used for testing of antiviral compounds by cytopathic effect (CPE) inhibition and plaque reduction assay. Primary human foreskin fibroblast cells (HFF) obtained from Dr. E. R. Kern (Department of Pediatrics, University of Alabama Medical School, 309 Bevill Biomedical Research Building, 845 19th Street South, Birmingham, Ala., 35294-2170), were used for cytopathic effect (CPE) inhibition assay. HEp-2, African green monkey kidney cells (Vero, ATCC), HFF and primary rabbit kidney cells were used to determine the cytotoxic effect of compounds of formula I. These cells were propagated in Dulbeco's modified Eagle's medium (DMEM) (Sigma, USA) supplemented with 10% inactivated fetal calf serum (FCS), 25 mM HEPES, 0.2% sodium bicarbonate and 1% penicillin/-streptomycin at 37° C. in the presence of 5% CO2.
(§5) The antiviral activity of the test compounds was determined against HSV-1 strain F, HSV-2 strain G (ATCC), HSV-1 strain E-377 and HSV-2 strain MS (Dr. E. R. Kern, see above), CMV strain AD 169 (NIH), HCMV (NIH), MCMV (NIH), and VZV strain Ellen (NIH). Highly infective virus stocks of HSV-1 and HSV-2 were prepared by infecting a confluent monolayer of HEp-2 (ATCC) or HFF in 150 cm^2 plastic tissue culture flasks (Falcon, USA) at a multiplicity of infection of 0.5 in DMEM supplemented with 10% inactivated fetal calf serum and 1% penicillin/streptomycin at 37° C. in the presence of 5% CO2. The infected cells were disrupted through three freeze/thaw cycles, and viruses were clarified from large cell debris by low speed centrifugation at 3000 rpm for 10 minutes. The virus suspension was separated, aliquoted and stored at −80° C. until assayed or used for animal infection. The stock HSV-1 (E377) and HSV-2 (MS strain) contained 3.5×10^8 and 1.1×10^7 pfu/ml respectively.
(§6) Low passage HFF cells were seeded into 96-well tissue culture plates 24 hours prior to use at a cell concentration of 2.5×10^4 cells per ml in 0.2 ml of DMEM supplemented with 10% fetal calf serum. After 24 hours of incubation at 37° C. in the presence of 5% CO2, medium was removed and the test compounds were diluted two-fold in DMEM in the 96-well tissue culture plate containing monolayer. […] For both HSV-1 and HSV-2 assays, the virus concentration utilized was 1000 pfu/ml and for HCMV, MCMV, and VZV assay 2500 pfu/ml were used. The plates were then incubated at 37° C. in the presence of 5% CO2 for two to three days for HSV-1 and HSV-2, 10 days for VZV and 14 days for HCMV and MCMV. The virus induced cytopathic effect (CPE) was monitored microscopically every day. CPE of HSV-1 was recognized by cell rounding and clumping, while HSV-2 formed large syncytia along with rounding and clumping of cells. […] EC50s were estimated from graphical plots of percent CPE against the concentration of the test compounds. The EC50s for each compound are the mean of EC50s for three or more independent experiments. After three days of incubation period, media was aspirated and the cells stained with a 0.1% crystal violet solution for 30 minutes. The stain was then removed and the plates were rinsed with tap water, air dried and retained.

HSV-1 strain F = assay: CPE inhibition, HSV-1 strain F in HEp-2 cells; also: key: +++ = Complete cytopathic effect; ++ = Moderate cytopathic effect; + = Minimum cytopathic effect; − = No cytopathic effect; type: cell-based, herpes simplex virus type 1; conditions: conc. per compound (ng/ml)
From the text: as §4, §5, §6

HSV-1 strain E-377 = assay: CPE inhibition assay, HSV-1 E377 in human foreskin fibroblast cells; as to Qualitative CPE at 2.0 ml dose HSV-1 E377: key: +++ = Complete cytopathic effect; ++ = Moderate cytopathic effect; + = Minimum cytopathic effect; − = No cytopathic effect; type: cell-based, herpes simplex virus type 1; conditions: for EC50: Human alphaherpesvirus 1, HFF, read-out: EC50 HSV-1 E377; for Qualitative CPE at 2.0 ml dose HSV-1 E377: solution conc. per compound (ng/ml) (Acyclovir 250)
Experimental: as §3, §4, §5, §6

HSV-2 strain G = assay: CPE inhibition, HSV-2 strain G in HEp-2 cells; also: key: +++ = Complete cytopathic effect; ++ = Moderate cytopathic effect; + = Minimum cytopathic effect; − = No cytopathic effect; type: cell-based, herpes simplex virus type 2; conditions: conc. per compound (ng/ml)
From the text: as §4, §5, §6

[3] = system: Primary human foreskin fibroblast cells (HFF); assay: Cell proliferation assay (cytotoxicity) in HFF cells; type: cell-based; conditions: for CC50: Human foreskin fibroblast cells, reduces growth of uninfected cells by 50%; for Qualitative Cytotoxic Effect at 2.0 ml dose: HFF cells, solution conc. per compound (ng/ml) (Acyclovir 250)
Experimental: as §1, §2

Epstein-Barr Virus = assay: VCA expression in EBV-infected Daudi cells; conditions: Epstein-Barr Virus, Daudi cells, VCA; test compounds in DMSO
From the text: Raji is a Burkitt's lymphoma cell line containing 60 EBV genome/cell, and was the primary cell used for screening antiviral activity against EBV early antigen (EA) expression. […] It spontaneously expresses EBV EA in 0.25-0.5% of the cells. It was used in follow-up studies to confirm activity. These cell lines respond to superinfection by EBV by expressing EA-diffuse component EA (D), EA restricted component EA (R), and viral capsid antigen (VCA). […] The cultures were fed twice weekly and the cell concentration was adjusted to 3×10^5/ml. The cells were kept at 37° C. in humidified atmosphere with 5% CO2.
Cells were infected with the P3HR-1 strain of HBV and the test compound was added after adsorption (45 minutes at 37° C.) and washing of the cell cultures. The cultures were incubated for two days in complete medium to allow viral gene expression. Following the 48 hours of incubation, the numbers of cells of each sample was counted and smears were made. Monoclonal antibodies to the different EA components and VCA were then added to the cells and then incubated and washed. This is followed by a fluorescein conjugated rabbit anti-mouse IgG antibody, and the number of fluorescence cells in the smear were counted. The total number of cells in the cultures positive for EA or VCA were then calculated and compared.

Human Cytomegalovirus = assay: CPE inhibition in stationary cells (visual), HCMV in HFF cells; type: cell-based; conditions: test compounds in DMSO
Varicella-Zoster Virus = assay: CPE inhibition in stationary cells (visual), VZV in HFF cells; type: cell-based; conditions: test compounds in DMSO
[4] = primary human foreskin fibroblast (HFF) cells

Molecule | Cell Cytotoxicity [1] | Cytopathic Effect (CPE) Inhibition HSV-1 Strain F (HSV-1 strain F) | Cytopathic Effect (CPE) Inhibition HSV-2 Strain G (HSV-2 strain G) | CC50 [3] | EC50 HSV-2 MS (HSV-2 strain MS; CPE inhibition in HFF cells) | EC50 HSV-1 E377 (HSV-1 strain E-377; CPE inhibition in HFF cells) | melting point | further results
CC1(C)CCC23CC[C@]4(C)C(CCC5[C@@]6(C)CCC(O)C(C)(C)C6CC[C@]54C)C2C1OC3=O (stereo partly drawn) [Allobetulin lactone, Allobetulin-Lactone] | − | +++ | ++ |  |  |  |  | CC50 at 72 h [2]: > 0.125 mg/L; EC50 (HSV-2 strain MS): 0.2 mg/L (≈ 0.438 µM); EC50 (HSV-1 strain E-377): > 0.125 mg/L
Allobetulin ethanolamine |  |  |  | 0.2 mg/L | >0.25 mg/L | >0.25 mg/L |  | 
CC1(C)CCC23CC[C@]4(C)C(CCC5[C@@]6(C)CCC(=O)C(C)(C)C6CC[C@]54C)C2C1OC3 (stereo partly drawn) [Allobetulon] | − | ++ | ++ |  |  |  |  | Qualitative Cytotoxic Effect at 2.0 ml dose [3]: −; CC50 at 72 h [2, 4]: 0.3 mg/L (≈ 0.681 µM); Qualitative CPE at 2.0 ml dose HSV-2 MS (HSV-2 strain MS): +++; EC50 (HSV-2 strain MS; CPE inhibition in HFF cells): 0.3 mg/L (≈ 0.681 µM); Qualitative CPE at 2.0 ml dose HSV-1 E377 (HSV-1 strain E-377; HFF cells): +++; EC50 (HSV-1 strain E-377; CPE inhibition in HFF cells): 0.3 mg/L (≈ 0.681 µM)
CC1(C)CCC23CCC4(C)C(CCC5C6(C)CCC(OC(=O)CCC(=O)O)C(C)(C)C6CCC54C)C2C1OC3 (stereo not drawn) [Allobetulin Succinate, Allobetulin, 3-Succinate] | − | ++ | + | >0.25 mg/L | >0.25 mg/L | >0.25 mg/L |  | 
CC(=O)OC1CCC2(C)C(CCC3(C)C2CCC2C4C5OC(=O)C4(CCC5(C)C)CCC23C)C1(C)C (stereo not drawn) [3β-Acetoxy-19αH-19,28lactone-oleanan, Allobetulin-3-acetyl lactone (3β-Acetoxy-19αH-19,28-lactone-oleanane)] | − | ++ | ++ | 0.225 mg/L (≈ 0.451 µM) | 0.125 mg/L (≈ 0.251 µM) | 0.225 mg/L (≈ 0.451 µM) |  | Qualitative Cytotoxic Effect at 2.0 ml dose [3]: +; Qualitative CPE at 2.0 ml dose HSV-2 MS (HSV-2 strain MS): ++; Qualitative CPE at 2.0 ml dose HSV-1 E377 (HSV-1 strain E-377; HFF cells): +++
Betulin glycerol oxalate |  |  |  |  |  |  |  | EC50 (Epstein-Barr Virus): 0.0072 mg/L; EC50 (Human Cytomegalovirus): >0.1 mg/L; EC50 (Varicella-Zoster Virus): >0.02 mg/L
CC1(C)CCC23CC[C@]4(C)C(CCC5[C@@]6(C)CC(Br)C(=O)C(C)(C)C6CC[C@]54C)C2C1OC3=O (stereo partly drawn) [Example 12, 2-Br-Allobetulonlacton] |  |  |  |  |  |  | 338 to 342.8 °C (dec.) | 
CC1(C)CCC23CC[C@]4(C)C(CCC5[C@@]6(C)CCC(=O)C(C)(C)C6CC[C@]54C)C2C1OC3=O (stereo partly drawn) [Example 10, Allobetulon Lactone] |  |  |  |  |  |  | 333.7 to 335.9 °C (dec.) | 
Allobetulin ethanolamine chlorohydrate |  |  |  | 0.125 mg/L | 0.125 mg/L | 0.125 mg/L |  | 
CC1(C)CCC23CC[C@]4(C)C(CCC5[C@@]6(C)C=C(O)C(=O)C(C)(C)C6CC[C@]54C)C2C1OC3 (stereo partly drawn) [Allobetulon-1,2-ene-2-ol, Allobetulon 1,2-ene-2-ol.] | − | ++ | ++ |  |  |  | 236.8 to 238.8 °C | Qualitative Cytotoxic Effect at 2.0 ml dose [3]: −; CC50 at 72 h [2, 4]: 0.22 mg/L (≈ 0.484 µM); Qualitative CPE at 2.0 ml dose HSV-2 MS (HSV-2 strain MS): +++; EC50 (HSV-2 strain MS; CPE inhibition in HFF cells): 0.165 mg/L (≈ 0.363 µM); Qualitative CPE at 2.0 ml dose HSV-1 E377 (HSV-1 strain E-377; HFF cells): +++; EC50 (HSV-1 strain E-377; CPE inhibition in HFF cells): 0.22 mg/L (≈ 0.484 µM)
Cc1ccc(S(=O)(=O)OC2CC[C@@]3(C)C(CC[C@]4(C)C3CCC3C5C6OCC5(CCC6(C)C)CC[C@]34C)C2(C)C)cc1 (stereo partly drawn) (as salt: tosylate) [Example 9, Allobetulin Tosylate] |  |  |  |  |  |  | 180 to 182.6 °C (dec.) | 
CC1(C)CCC23CCC4(C)C(CCC5C6(C)CCC(OC(=O)CO)C(C)(C)C6CCC54C)C2C1OC3 (stereo not drawn) [Allobetulin 3-glycolate, Allobetulin, 3-Glycolate] | − | +++ | ++ | >0.25 mg/L | 0.125 mg/L (≈ 0.25 µM) | >0.25 mg/L |  | 
CC1(C)CCC23CC[C@]4(C)C(CCC5[C@@]6(C)C=C(O)C(=O)C(C)(C)C6CC[C@]54C)C2C1OC3=O (stereo partly drawn) [Example 13, Allobetulonlacton 1-ene-2-ol] |  |  |  |  |  |  | 238.8 to 243.6 °C (dec.) | 
CC1(C)CCC23CC[C@@]4(C)C(CCC5[C@@]6(C)CCC(OP(=O)(O)O)C(C)(C)C6CC[C@]54C)C2C1OC3 (stereo partly drawn) [Allobetulin 3-phosphate, Allobetulin Phosphate] | − | +++ | ++ | >0.125 mg/L | 0.25 mg/L | >0.25 mg/L |  | anti HSV-1 activity (in words) (HSV-1 strain E-377; HFF cells, HSV-1 (E377)): significant activity
CC1(C)CCC23CCC4(C)C(CCC5C6(C)CCC(OC(=O)c7ccccc7C(=O)O)C(C)(C)C6CCC54C)C2C1OC3 (stereo not drawn) [Allobetulin 3-phthalate, Allobetulin, 3-Phthalate] | − | ++ | ++ | >0.25 mg/L | 0.25 mg/L (≈ 0.423 µM) | >0.25 mg/L |  | 
